Earlier results as cited in patent publication US20240016731A1, “Drug Implants Containing Apalutamide and Methods of Use Thereof” (The Regents of the University of California, priority 2020, published 2024).

Conditions: systemic (e.g., oral) administration, assuming 240 mg daily dose

Structure (SMILES): CNC(=O)c1ccc(N2C(=S)N(c3cnc(C#N)c(C(F)(F)F)c3)C(=O)C23CCC3)cc1F [apalutamide, Apalutamide]
- steady state blood plasma concentration of apalutamide: about 6 μg/ml
